# Assay results as given in ChEMBL document CHEMBL1153036, “Structure-based de novo design and biochemical evaluation of novel Cdc25 phosphatase inhibitors” (Bioorg Med Chem Lett, 2009).
# Assays:
# [1] = biological target: T1, M-phase inducer phosphatase 1 (Homo sapiens, UniProt P30304); test: Inhibition of N-terminal 6xHis-tagged human Cdc25A (336-523) catalytic domain expressed in Escherichia coli after 20 mins by fluorescent plate reader assay
# T1 sequence (P30304 whole entry): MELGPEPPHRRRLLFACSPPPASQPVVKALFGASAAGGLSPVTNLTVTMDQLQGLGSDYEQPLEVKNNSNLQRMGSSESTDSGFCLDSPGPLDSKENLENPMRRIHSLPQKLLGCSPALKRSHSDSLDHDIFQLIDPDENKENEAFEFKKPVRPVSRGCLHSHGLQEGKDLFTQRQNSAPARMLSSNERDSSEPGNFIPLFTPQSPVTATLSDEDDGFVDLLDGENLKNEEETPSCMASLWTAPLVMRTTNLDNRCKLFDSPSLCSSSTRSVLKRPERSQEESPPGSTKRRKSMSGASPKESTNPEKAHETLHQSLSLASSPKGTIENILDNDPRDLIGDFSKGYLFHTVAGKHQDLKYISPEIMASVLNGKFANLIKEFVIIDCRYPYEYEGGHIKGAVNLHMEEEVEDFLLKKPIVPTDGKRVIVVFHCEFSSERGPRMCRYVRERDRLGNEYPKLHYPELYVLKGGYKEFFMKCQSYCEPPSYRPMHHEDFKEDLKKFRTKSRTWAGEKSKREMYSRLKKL
# [2] = biological target: T2, M-phase inducer phosphatase 2 (Homo sapiens, UniProt P30305); test: Inhibition of N-terminal 6xHis-tagged (378-566) catalytic domain of Cdc25B expressed in Escherichia coli after 20 mins by fluorescent plate reader assay
# T2 sequence (P30305 whole entry): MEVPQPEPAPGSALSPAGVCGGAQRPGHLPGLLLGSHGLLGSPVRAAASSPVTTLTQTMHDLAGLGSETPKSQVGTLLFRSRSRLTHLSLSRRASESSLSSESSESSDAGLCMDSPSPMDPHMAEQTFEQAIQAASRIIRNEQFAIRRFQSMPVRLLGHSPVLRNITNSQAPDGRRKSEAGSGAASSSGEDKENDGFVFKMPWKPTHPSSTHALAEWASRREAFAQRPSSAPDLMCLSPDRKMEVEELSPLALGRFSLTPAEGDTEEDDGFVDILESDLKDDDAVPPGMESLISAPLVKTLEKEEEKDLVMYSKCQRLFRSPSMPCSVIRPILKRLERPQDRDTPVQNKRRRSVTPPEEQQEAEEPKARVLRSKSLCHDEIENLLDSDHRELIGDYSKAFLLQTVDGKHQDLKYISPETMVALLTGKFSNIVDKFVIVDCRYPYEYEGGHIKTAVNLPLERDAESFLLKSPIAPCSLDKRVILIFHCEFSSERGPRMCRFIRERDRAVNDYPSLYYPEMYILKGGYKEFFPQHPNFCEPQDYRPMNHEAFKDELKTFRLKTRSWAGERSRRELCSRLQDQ
Compound,IC50 [1],IC50 [2]
O=C1N=C(Nc2ccc(Cl)cc2)S/C1=C\c1cccs1,11.1 µM,4.4 µM
O=C1N=C(Nc2cccc(Cl)c2)S/C1=C\C=C\c1ccco1,9.1 µM,3.2 µM
CC(=C/c1ccccc1)/C=C1\SC(Nc2ccc(C)c(C)c2)=NC1=O,8.1 µM,2.3 µM
Cn1c(SCC(=O)c2ccc(-c3ccccc3)cc2)nnc1-c1ccco1,13 µM,2 µM
Cn1c(SCC(=O)c2ccc(-c3ccccc3)cc2)nnc1-c1ccncc1,13.1 µM,4.2 µM
O=C1N=C(Nc2cc(Cl)cc(Cl)c2)S/C1=C\c1c[nH]c2ccccc12,12.7 µM,2.3 µM
O=C1N=C(Nc2ccccc2Cl)S/C1=C\C=C\c1ccco1,10.1 µM,2.1 µM
C=Cn1c(SCC(=O)c2ccc(Cl)cc2)nnc1-c1ccco1,14.5 µM,5.2 µM
Cn1c(SCC(=O)c2ccc([N+](=O)[O-])cc2)nnc1-c1cccc(NC(=O)c2ccccc2F)c1,19 µM,5.4 µM
Cn1cccc1/C=C1\SC(Nc2ccc(Cl)cc2)=NC1=O,15.4 µM,3.1 µM
O=C(CSc1nnc(-c2ccc(Cl)cc2)n1-c1ccccc1)c1ccc(O)c(O)c1,11.5 µM,1.6 µM
Cn1cccc1/C=C1\SC(Nc2ccc(F)cc2)=NC1=O,14.3 µM,3.7 µM
COc1ccc(-n2c(SCC(=O)c3ccc(O)c(O)c3)nnc2-c2ccc(C)cc2)cc1,9.2 µM,4.7 µM
Cn1c(SCC(=O)c2ccc([N+](=O)[O-])cc2)nnc1-c1cccc(Cl)c1,11.1 µM,4.4 µM
CC(=C/c1ccccc1)/C=C1\SC(Nc2ccc(Br)cc2)=NC1=O,17.3 µM,5.1 µM
CC(=C/c1ccccc1)/C=C1\SC(Nc2ccccc2Cl)=NC1=O,10.3 µM,3.9 µM
Oc1nc(Nc2ccc(Cl)cc2Cl)sc1/C=C1\C=Nc2ccccc21,12.6 µM,2.6 µM
O=C1N=C(Nc2ccc(F)cc2)S/C1=C\c1cccs1,30.7 µM,8.9 µM
CC(=C/c1ccccc1)/C=C1\SC(Nc2cccc(Cl)c2)=NC1=O,12.8 µM,3.3 µM
CCn1c(SCC(=O)c2ccc(Cl)cc2)nnc1-c1cccnc1,17.2 µM,6 µM

# These reach a lower IC50 [1]. Values come first.
IC50 [1],IC50 [2],Compound
6 µM,1.7 µM,COc1ccc(-c2nnc(SCC(=O)c3ccc(O)c(O)c3)n2-c2ccccc2)cc1
7.1 µM,1.8 µM,Cc1ccc(/N=C2N=C(O)/C(=C/C=C/c3ccco3)S\2)cc1C
7.1 µM,2.5 µM,Cc1ccc(-c2nnc(SCC(=O)c3ccc(O)c(O)c3)n2-c2ccccc2)cc1
4.7 µM,2.3 µM,Cc1ccc(-c2nnc(SCC(=O)c3ccc(O)c(O)c3)n2Cc2ccco2)cc1
7.8 µM,2.8 µM,O=C1N=C(Nc2cccc(O)c2)S/C1=C\c1cccs1
5.1 µM,1.2 µM,CC(=C/c1ccccc1)/C=C1\SC(Nc2cc(Cl)cc(Cl)c2)=NC1=O
6.7 µM,4.5 µM,O=C1N=C(Nc2ccc(Cl)cc2Cl)S/C1=C\C=C\c1ccco1
4.1 µM,2.3 µM,O=C1N=C(Nc2cc(Cl)cc(Cl)c2)S/C1=C\C=C\c1ccco1
7.7 µM,2.7 µM,O=C1N=C(Nc2cccc(Br)c2)S/C1=C\C=C\c1ccco1
6.2 µM,2.1 µM,O=C1N=C(Nc2cccc(Cl)c2Cl)S/C1=C\C=C\c1ccco1
